# Results published in patent US10960084B2, “Modulation of fluid intake” (California Institute of Technology, priority 2018, dated 2021).
# Experiments:
# [1] = system: SFO^nNOS neurons; experiment: Salt/Mannitol loading with fiber photometry of SFO^nNOS/MnPO^nNOS neurons and drinking; type: in vivo, mice; conditions: fiber photometry; for activity of SFO^nNOS neurons after intraperitoneal injection: 2 M solution i.p.
# Protocol: Salt/Mannitol Loading Experiments: 150 μL/300 μL of 2 M NaCl or 300 μL of 2 M Mannitol was injected intraperitoneally at the end of the acclimatization period. For FIGS. 1P-T and FIGS. 7P-S, CNO or vehicle (water) was injected 10 min prior to NaCl/Mannitol injection. We measured bulk fluorescence signals using fiber photometry as previously described^[26]. Briefly, 490 nm and 405 nm LEDs ([…] and […]) were collimated and delivered to the brain. The light intensity was kept less than 100 μW during all recordings. The fluorescence signal was then focused onto a femtowatt photoreceiver (Newport, Model 2151). The modulation and demodulation were done with an RP2.1 real time processor (Tucker-Davis Technologies) running custom software. The licks from the lickometer were simultaneously recorded as real-time TTL signals to the RP2.1. Fluorescence changes were analyzed using custom MATLAB (MathWorks) code as described previously^[26]. Data were extracted and subjected to a low pass filter at 1.8 Hz. A linear function was used to scale up the 405 nm channel signal to the 490 nm channel signal to get the fitted 405 nm signal. The resultant ΔF/F was calculated as (raw 490 nm signal-fitted 405 nm signal)/(fitted 405 nm signal). For brief access tests, the Area Under Curve (ΣΔFduring) was quantified by integrating the fluorescence signals during the bout. For all bouts, the mean fluorescence for 30 s prior to the first lick was calculated and subtracted from the entire session. ΔF changes (ΔFpost-ΔFpre) were calculated by subtracting the mean fluorescence signal during the 2-s period before the first lick from the mean signal during the 2-s at 1 min after the bout. For displaying traces, the fluorescence data was time-binned by a factor of 2.5 times the sampling frequency and down-sampled to 1 Hz. For long-term tests, the Area Under Curve was calculated for 2.5 min after the start of the bout. […] For […]), the first bout at the start of the session and the last bout within 10 min of access were used. The AUC for the PSTHs were calculated during the first or the last 15 seconds.
# [2] = system: MnPO; experiment: Intra-cranial injection of Exendin-4 into the MnPO, water intake; type: in vivo, mice; conditions: 100 ng into the MnPO vs vehicle (ACSF)
# Protocol: 100 ng of Exendin-4 (Sigma Aldrich) dissolved in 1 μL of ACSF was delivered by a custom-made cannula and tubing (PlasticsOne) connected to a Hamilton syringe driven by a pump (NewEra PumpSystems) at 100 nL/min into the MnPO of water deprived animals under head-fixed conditions. Two minutes after infusion, freely-moving animals were given access to water for the next 45 minutes. The cannula position was verified by infusing Exendin-4-FAM (Anaspec) conjugate before euthanasia. ELISA
# [3] = system: MnPO^GLP1r neurons; experiment: Whole-cell recording from MnPO^GLP1r neurons with Exendin-4; type: cell-based, mice; conditions: brain slice preparation
# Excerpt: Procedures for preparation of acute brain slices and recordings with optogenetic stimulations were similar to those described previously^[10],[36]. After decapitation, the brain was removed and immersed in ice-cold solution. Coronal slices ([…]) were cut using a vibratome (VT-1200s, Leica) and moved into HEPES-holding solution (NaCl 92, KCl 2.5, NaH2PO4 1.2, NaHCO3 30, HEPES 20, glucose 25, Na-ascorbate 5, Thiourea 2, Na14 pyruvate 3, MgSO4 2, CaCl2 2, pH 7.35). The slices were allowed to recover at 33° C. for 30 min and then held at room temperature ([…]) until use.
# While recording, slices were perfused continuously (˜2 mL/min) with artificial cerebrospinal fluid (ACSF-NaCl 124, KCl2.5, NaH2PO4 1.2, NaHCO3 24, glucose 25, MgSO4 1, CaCl2 2) at 25° C. Neurons were visualized and targeted using an upright IR19 DIC microscope (BX51WI, Olympus). […] In order to confirm the PSCs recorded were GABAergic, picrotoxin (150 μM) was applied through the bath in part of the experiments. […] CNO (˜6 μM) was applied by a puff (30 s) from another glass pipette placed ˜50 μm from the recorded cell.
compound,measurement,setting,value
OC[C@@H](O)[C@@H](O)[C@H](O)[C@H](O)CO [Mannitol],activity of SFO^nNOS neurons after intraperitoneal injection,[1],robustly activated
[Cl-].[Na+] [NaCl],activity of SFO^nNOS neurons after intraperitoneal injection,[1],robustly activated
same,activity of MnPO^nNOS neurons after intraperitoneal injection,"[1]; 2 M, 300 μl i.p., water-satiated animal",robustly activated
Exendin-4,water intake after water deprivation,[2],no effect on water intake
same,firing frequency of MnPO^GLP1r neurons,[3],no effect on the firing frequency
same,resting membrane potential of MnPO^GLP1r neurons,[3],small decrease
